Experimental data taken from PMC3367138, “Selective inhibitors of cardiac ADPR cyclase as novel anti-arrhythmic compounds” (Naunyn-Schmiedeberg's Archives of Pharmacology, 2012).

Target: T1, adenosine A2A receptor (Homo sapiens, UniProt P29274)
T1 construct: gene ADORA2A
Assay: radioligand displacement (agonist radioligand), single concentration […] in duplicate; […] of control remaining ([…] inhibition)
Type: binding

T1 sequence (P29274 whole entry): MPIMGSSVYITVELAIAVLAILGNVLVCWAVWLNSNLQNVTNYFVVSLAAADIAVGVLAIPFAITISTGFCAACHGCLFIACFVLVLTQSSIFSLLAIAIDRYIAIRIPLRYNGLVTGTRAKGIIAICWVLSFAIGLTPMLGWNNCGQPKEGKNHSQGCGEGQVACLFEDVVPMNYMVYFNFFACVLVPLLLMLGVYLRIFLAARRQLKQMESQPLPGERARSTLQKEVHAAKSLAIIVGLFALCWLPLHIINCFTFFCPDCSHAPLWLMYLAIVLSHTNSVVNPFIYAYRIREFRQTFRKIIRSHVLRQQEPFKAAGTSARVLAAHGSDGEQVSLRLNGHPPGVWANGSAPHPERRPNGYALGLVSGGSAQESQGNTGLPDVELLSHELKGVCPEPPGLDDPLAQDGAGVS

inhibition at 10 µM: 81%
Compound: Cc1nn(Cc2cccc(C(=O)O)c2)c2nc(-c3ccncc3)[nH]c(=O)c12 [SAN4825]
